≈ marks a conversion by molar mass, not a printed value. Like-named read-outs stand apart in the source and are kept apart here.
Experiments:
[1] = pKa determination by aqueous titrations; format: physicochemical; settings: aqueous solution, phenolic hydroxy group
Description: (§1) n-octanol. From the n-octanol containing titrations the poKa (the apparent ionization constant in the presence of n-octanol) and then logP values were estimated and refined by a weighted non-linear least-squares procedure, where the aqueous pKa values (taken from aqueous titrations) were used as unrefined contributions. For each compound a minimum of three to six titrations at different phase volume ratios were measured, and the respective average logP values were calculated. logD values were also calculated by logP and pKa values using the Henderson– Hasselbalch equation. The relevant relationships between logP, pKa, and poKa, for mono- and multiprotic substances, including cases of ion-pair formation, have been described in detail earlier. […]

[2] = logP determination by titrations in the presence of n-octanol; logD calculated from logP and pKa; format: physicochemical; settings: n-octanol/water; for logP: lipophilicity of neutral species; for logD: calculated from logP and pKa by Henderson–Hasselbalch equation
Description: as §1

in vitro = in vitro ADME; settings: pig, PAMPA, pH 7.4
Description: Physicochemical characterization of dracocephins A and B was also carried out. […] Similarly to this lipophilicity trend, the TPSA value of (±)-naringenin is lower than dracocephins A and B, however, there is no difference between the calculated TPSA values of 2a–d and 3a–d. […] Among these proton-dissociation constants, the lowest acidic pKa values are predominant in physiological environment, which is also indicated by the difference of log D values between pH 7.4 and pH 6.5. The blood–brain barrier (BBB) specific penetration of dracocephins isomers has also been studied by the PAMPA (parallel artificial membrane permeability assay)-BBB model system, which indicates passive diffusion of test compounds across the brain capillary endothelium. […]
n-octanol. […] For each compound a minimum of three to six titrations at different phase volume ratios were measured, and the respective average logP values were calculated. logD values were also calculated by logP and pKa values using the Henderson– Hasselbalch equation. […]
(§2) for 4 h. After the incubation, PAMPA sandwich plates are separated and compound concentrations in donor and acceptor solutions are determined by HPLC-DAD. […]
(§3) Cytotoxicity on SH-SY5Y cells: Cytotoxicity on SH-SY5Y cells was measured in an analogous manner as described in the literature. […]

[3] = Cytotoxicity on SH-SY5Y cells (MTT); format: cell-based; settings: human, undifferentiated SH-SY5Y neuroblastoma cells
Description: for 4 h. After the incubation, PAMPA sandwich plates are separated and compound concentrations in donor and acceptor solutions are determined by HPLC-DAD.
SH-SY5Y neuroblastoma was cultured in EMEM media supplemented with non-essential amino acids, 1 mM Na pyruvate and 10% inactivated fetal bovine serum, nystatin, 2 mM L-glutamine, 100 U penicillin and 0.1 mg streptomycin, purchased from Sigma. Cells were cultured at 37 °C and 5% CO2. […]
as §3
(§4) were read after o/n incubation. Fifty percent inhibitory concentrations (IC50) were calculated using nonlinear regression curve fitting of log (inhibitor) versus normalized response and variable slope with a least squares (ordinary) fit of GraphPad Prism 5 software, for three independent samples.
Evaluation of compounds effect on rhodamine 123 accumulation: Rd123 concentration inside L5178PAR and L5178MDR cells was determined by flow cytometry.
Briefly, 2 × 10^6 cells/mL were treated with 2 and 20 μM of each compound and incubated for 10 min at rt. […] The fluorescence of the samples was measured by flow cytometry (Becton Dickinson FACScan, BD, U.S.). […]
Fluorescence activity ratio measures the capacity of inhibition (accumulation of Rd123) and it is equal to the ratio between the FL-1 values of the L5178MDR cells […]

P-glycoprotein (P-gp) = assay: Rhodamine 123 accumulation in P-gp transfected L5178MDR cells; format: cell-based; settings: 2 and 20 μM of compound
Description: In connection with the BBB penetration studies, 2a–d and 3a–d were tested for their potential towards CNS cytotoxic activity on undifferentiated SH-SY5Y neuroblastoma cells. […] On the other hand, the possibility for neuroprotective activity could not be tested with the applied experimental setup. As an additional bioassay on compounds 2a–d and 3a–d, their potential to interfere with the function of P-glycoprotein (P-gp) was tested. By transporting a wide variety of compounds from the CNS back into the blood stream, P-gp is an important element of the BBB [16]. […]
as §2, §3, §4
Evaluation of compounds effect on rhodamine 123 accumulation: Rd123 concentration inside L5178PAR and L5178MDR cells was determined by flow cytometry. […]

[4] = DPPH radical scavenging test; settings: microplate format
Description: Antioxidant activity: The radical scavenging capacity of dracocephins A and B were
tested in the microplate format of the 2,2-diphenyl-1-picrylhydrazyl (DPPH) assay.
Naringenin and quercetin were obtained from PhytoLab (Vestenbergsgreuth,
Germany), and used as controls. […]

[5] = first value in cell, read-out: pKa (first, lowest acidic)
[6] = second value in cell, read-out: pKa (second) (converted)
[7] = third value in cell, read-out: pKa (third) (converted)

Molecule	pKa [1, 5]	pKa [1, 6]	pKa [1, 7]	logP [2]	logD ([2]; pH 6.5, read-out: log D6.5)	logD ([2]; pH 7.4, read-out: log D7.4)	Papp at 4 h, 100 µM (in vitro) [×10⁻⁶ cm/s]	IC50 at 48 h [3] [µM]	P-gp inhibition (rhodamine 123 accumulation) (P-glycoprotein (P-gp))	IC50 DPPH radical scavenging [4] [µg/mL]
O=C1CCC(c2c(O)cc3c(c2O)C(=O)CC(c2ccc(O)cc2)O3)N1 (stereo not drawn) [2a–d, 6-(2”-pyrrolidinone-5”-yl)naringenin]	6.69 ± 0.01	9.47	12.3	2.52 ± 0.02	2.31	1.74	1.1 ± 0.1	> 150	none of the synthesized compounds inhibits this transporter	> 200
O=C1CCC(c2c(O)cc(O)c3c2OC(c2ccc(O)cc2)CC3=O)N1 (stereo not drawn) [3a–d, 8-(2”-pyrrolidinone-5”-yl)naringenin]	6.54	9.54	12	2.39 ± 0.02	2.12	1.51		> 150	none of the synthesized compounds inhibits this transporter	> 200
O=c1c(O)c(-c2ccc(O)c(O)c2)oc2cc(O)cc(O)c12 [quercetin, reference compound]										9.4 ± 0.6 (≈ 31.1 µM)
naringenin [(±)-1, reference compound]										> 200

Source: article PMC5238559, “Biomimetic synthesis and HPLC–ECD analysis of the isomers of dracocephins A and B” (Beilstein Journal of Organic Chemistry, 2016)
